The text below walks through data of patent US20200171056A1, “SULFONYLUREA COMPOUNDS IN THE TREATMENT OF DISEASE ASSOCIATED WITH UV-INDUCED DAMAGE” (CeMM - Forschungszentrum für Molekulare Medizin GmbH, priority 2017, published 2020).

Common to all, as to format: cell-based, human
One test relates to WT and ΔXPA cells. As to the kind of experiment: Survival after illudin S treatment. Conditions: 0.5 mM acetohexamide for 6 hours, then illudin S (FIG. 2A, 7B). As to the method: A. Dose-response curve of WT and ΔXPA cells treated with or without 0.5 mM acetohexamide for 6 hours, followed by illudin S treatment. Survival was assessed after 3 days using CellTiter-Glo. B. Colony formation of WT fibroblasts (BJ) and XPA-patient derived fibroblasts (XPA^Δ/Δ) treated with or without 0.5 mM acetohexamide for 6 hours, followed by UV irradiation (as indicated) and then kept in culture for 10 days. C. WT BJ and XPA^Δ/Δ fibroblastoid cells were treated with 0.5 mM acetohexamide for 6 hours, irradiated with 15 J/M^2 and then fixed and immunostained with an anti-cyclobutane pyrimidine dimer (CPD) antibody at the indicated times. Nuclear DNA was counterstained with DAPI. Scale bar, 10 μm. D. Scatter plot displaying the quantification of CPD intensities per nucleus of WT and XPA^Δ/Δ cells in the presence or absence of 0.5 mM acetohexamide, of more than 100 cells. Red lines within each column represent median intensities. A.u.=arbitrary unit.
A. Dose-response curve of WT and ΔXPA cells treated with or without 0.5 mM acetohexamide for the indicated times, followed by UV irradiation. Survival was assessed after 3 days, using CellTiter-Glo. […] WT and ΔXPA cells treated with or without 0.5 mM acetohexamide for the indicated times, followed by 15 J/M^2 irradiation and analyzed by dot blot for the presence of CPDs in genomic DNA. […] D. Quantification of the intensities of C. […]

Test [1] deals with CPDs in genomic DNA of HAP1 cell lines. As to the kind of experiment: Dot blot for cyclobutane pyrimidine dimers. Particulars: HAP1 WT and ΔXPA, 0.5 mM, 15 J/M^2 (FIG. 7C-D). How it is done: A. Dose-response curve of WT and ΔXPA cells treated with or without 0.5 mM acetohexamide for the indicated times, followed by UV irradiation. Survival was assessed after 3 days, using CellTiter-Glo. […] Error bars indicate SEM (n=3). B. Clonogenic survival of WT and ΔXPA cells treated with 0.5 mM acetohexamide for 6 hours or left untreated, then exposed to illudin S for 10 days, as indicated. C. WT and ΔXPA cells treated with or without 0.5 mM acetohexamide for the indicated times, followed by 15 J/M^2 irradiation and analyzed by dot blot for the presence of CPDs in genomic DNA. DNA was counterstained with methylene blue (MB) as a loading control. D. Quantification of the intensities of C.
The amount of cyclobutane pyrimidine dimers (CPDs) in DNA was quantified using an immuno-dot blot assay with the CPD-specific monoclonal antibody TDM-2 (Cosmo Bio). Genomic DNA was extracted using QIAamp DNA mini kit (Qiagen), then the genomic DNA was denatured in TE buffer (10 mM Tris-CL and 1 mM EDTA, pH 7.5) by boiling for 5 minutes and subsequently 50 ng of genomic DNA was dot-blotted in triplicate onto a nitrocellulose membrane. The DNA was then fixed by baking the membrane for 2 hours at 80° C. […] Signals were detected using Amersham ECL (GE Healthcare Life Sciences DNA was counterstained with methylene blue as a loading control.

Test [2] relates to DNA repair knockout HAP1 cell lines. The test is described as follows: Percentage of rescue in panel of 20 DNA repair-deficient cell lines after UV. From the text:
FIG. 3. Loss of MUTYH mimics acetohexamide function A. Bubble plot displaying the percentage of rescue, defined as the difference in survival of a given cell line treated with acetohexamide compared to untreated, following UV irradiation. The light grey, dark grey bubbles highlight ΔMUTYH, ΔXPA […], and black bubbles indicate the rest of the knockout cell lines and WT HAP1. The size of the bubbles indicates the significance as log10 (p-value). BER: base excision repair; NER: nucleotide excision repair; DSBR; double-strand break repair; MMR: mis-match repair; FA: Fanconi aneamia; DR; direct reversal; TLS; translesion synthesis. B. Survival of WT and MUTYH-deficient (ΔMUTYH) cells with or without 0.5 mM acetohexamide treatment, followed by UV irradiation, as assessed after 3 days using CellTitre-Glo. Loss of MUTYH protein was confirmed by immunoblotting using an anti-MUTYH antibody. ACTIN was used as a loading control. C. Deletion of MUTYH in WT HAP1 or an XPA-deficient background was confirmed by immunoblotting using an anti-MUTYH antibody. TUBULIN was used as a loading control. D. Clonogenic survival of WT, ΔXPA or ΔXPA-MUTYH cells irradiated with UV at the indicated doses or left untreated. Cells were fixed and stained 10 days later.
Since acetohexamide enhanced the clearance of CPDs in NER-deficient cells, it was speculated that its mode-of-action could be via one the known DNA excision repair pathways. Thus, a panel of 20 DNA repair-deficient cell lines was prepared using CRISPR-Cas9, representing all DNA repair pathways. Pol kappa (POLK) was selected to represent translesion synthesis (TLS) polymerases since it has roles in the repair synthesis step of NER. Subsequently, these cell lines (as well as two wildtype controls) were treated with acetohexamide and exposed to UV irradiation (FIG. 3A). […]
The DNA repair knockout cell lines were generated in collaboration with Horizon Genomics. […] Subsequently, the genomic DNA was isolated using Direct PCR-Cell Kit (PeqLab) and the region targeted by the gRNA was PCR amplified and analyzed by Sanger sequencing. […]

Consider `CC(=O)c1ccc(S(=O)(=O)NC(=O)NC2CCCCC2)cc1` [acetohexamide], for which the “cellular survival following illudin S treatment” value in the test on WT and ΔXPA cells is reported as “could increase cellular survival following illudin S treatment”. Moreover, the “clearance of CPDs, dot blot” value in test [1] was “same observation was also made for HAP1 cell lines”. In test [2] (all knockout lines other than ΔMUTYH (FIG. 3A)), the “protective effect against UV-induced damage (percentage of rescue), knockout cell lines and wildtype” value is “comparable protective effect against UV-induced damage on all the knockout cell lines tested (and also to wildtype cells)”. The “protective effect on NER-deficient cell lines” value in test [2] (knock out cell lines absent of XPA, XPC, ERCC8 (CSA), ERCC6 (CSB) or XPV (POLH)) was “general protective effect on NER-deficient cell lines”. In addition, the “protective effect against UV-induced damage (percentage of rescue), cells lacking MUTYH” value in test [2] (ΔMUTYH (FIG. 3A)) is “no effect on cells lacking MUTYH”.
